For 14 molecules, IC50 and inhibition results are on record in patent publication US9321738B2, “N-alkyltriazole compounds as LPAR antagonists” (Hoffmann-La Roche Inc., priority 2012, dated 2016).

Assay [1] addresses LPAR3 (Homo sapiens (Human), UniProt Q9UBY5). Put plainly: Calcium flux assay using FLIPR, LPAR3 antagonist activity. In kind it is cell-based. The settings on record: for IC50: antagonist mode, calcium flux. How it is done: (§1) Calcium Flux Assay Using Fluorometric Imaging Plate Reader (FLIPR)
(§2) Dye Loading and Assay: Loading Buffer (FLIPR Calcium-4, Molecular Devices) was prepared by dissolving the contents of one bottle into 100 mL Hank's Balanced Salt Solution containing 20 mM HEPES and 2.5 mM probenecid. Plates were loaded onto Biotek plate washer and growth media was removed and replaced with 20 μL of Hank's Balanced Salt Solution containing 20 mM HEPES and 2.5 mM probenecid, followed by 25 μL of Loading Buffer. The plates were then incubated for 30 minutes at 37° C.
(§3) During the incubation, test compounds were prepared by adding 90 μL of HBSS/20 mM HEPES/0.1% BSA buffer to 2 μL of serially diluted compounds. To prepare serial dilutions, 10 mM stocks of compounds were prepared in 100% DMSO. The compound dilution plate was set up as follows: well #1 received 29 μL of stock compound and 31 μL DMSO. Wells 2-10 received 40 μL of DMSO. After mixing, 20 μL of solution from well #1 was transferred into well #2, followed by 1:3 serial dilutions out 10 steps. 2 μL of diluted compound was transferred into duplicate wells of 384 well “assay plate” and then 90 μL of buffer was added.
(§4) After incubation, both the cell and “assay” plates were brought to the FLIPR and 20 μL of the diluted compounds were transferred to the cell plates by the FLIPR. Compound addition was monitored by the FLIPR to detect any agonist activity of the compounds. Plates were then incubated for 30 minutes at room temperature protected from light. After the incubation, plates were returned to the FLIPR and 20 μL of 4.5× concentrated agonist was added to the cell plates. During the assay, fluorescence readings were taken simultaneously from all 384 wells of the cell plate every 1.5 seconds. Five readings were taken to establish a stable baseline, then 20 μL of sample was rapidly (30 μL/sec) and simultaneously added to each well of the cell plate. The fluorescence was continuously monitored before, during and after sample addition for a total elapsed time of 100 seconds. Responses (increase in peak fluorescence) in each well following agonist addition was determined. The initial fluorescence reading from each well, prior to ligand stimulation, was used as zero baseline value for the data from that well. The responses were expressed as % inhibition of the buffer control. The IC50 value, defined as the concentration of a compound that is required for 50% inhibition of the buffer control, was calculated by fitting the percent inhibition data for 10 concentrations to a sigmoidal dose-response (4 parameter logistic) model using Genedata Condoseo program [model 205, F(x)=(A+(B−A)/(1+((C/x)^D))))].

In assay [2] the target is human recombinant LPA1 Lysophospholipid receptor (Homo sapiens (Human), UniProt Q92633). Put plainly: Calcium flux assay using FLIPR, LPAR1 antagonist activity. In kind it is cell-based. As to conditions: for IC50: ChemiScreen stable cell line, antagonist mode, calcium flux. On the procedure: as §1
Chain of human recombinant LPA1 Lysophospholipid receptor (Q92633 whole entry): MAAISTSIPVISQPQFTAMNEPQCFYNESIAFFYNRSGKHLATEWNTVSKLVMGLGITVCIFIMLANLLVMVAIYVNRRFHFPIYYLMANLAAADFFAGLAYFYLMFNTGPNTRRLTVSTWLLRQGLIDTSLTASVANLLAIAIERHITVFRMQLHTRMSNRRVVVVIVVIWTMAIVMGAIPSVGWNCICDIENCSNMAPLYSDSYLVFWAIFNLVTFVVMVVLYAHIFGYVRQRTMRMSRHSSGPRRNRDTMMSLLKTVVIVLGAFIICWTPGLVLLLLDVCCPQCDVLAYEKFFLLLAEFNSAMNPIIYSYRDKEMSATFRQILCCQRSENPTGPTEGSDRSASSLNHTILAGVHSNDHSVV
Cell Culture Conditions: The ChemiScreen Calcium-optimized stable cell line containing the human recombinant LPA1 Lysophospholipid receptor was purchased from Chemicon International, Inc./Millipore. The cells were cultured in DMEM-high glucose supplemented with 10% fetal bovine serum, 2 mM glutamine, 100 U/mL penicillin/100 μg/mL streptomycin, 1× non-essential amino acids, 10 mM HEPES and 0.25 mg/mL Geneticin. Cells were harvested with trypsin-EDTA and counted using ViaCount reagent. The cell suspension volume was adjusted to 2.0×10^5 cells/mL with complete growth media. Aliquots of 50 μL were dispensed into 384 well black/clear tissue culture treated plates (BD) and the microplates were placed in a 37° C. incubator overnight. The following day plates were used in the assay.
as §2, §3, §4
(In general: A change in cytosolic calcium serves as a functional read-out for many receptors and channels.)

Chain of LPAR3 (Q9UBY5 whole entry, species assumed): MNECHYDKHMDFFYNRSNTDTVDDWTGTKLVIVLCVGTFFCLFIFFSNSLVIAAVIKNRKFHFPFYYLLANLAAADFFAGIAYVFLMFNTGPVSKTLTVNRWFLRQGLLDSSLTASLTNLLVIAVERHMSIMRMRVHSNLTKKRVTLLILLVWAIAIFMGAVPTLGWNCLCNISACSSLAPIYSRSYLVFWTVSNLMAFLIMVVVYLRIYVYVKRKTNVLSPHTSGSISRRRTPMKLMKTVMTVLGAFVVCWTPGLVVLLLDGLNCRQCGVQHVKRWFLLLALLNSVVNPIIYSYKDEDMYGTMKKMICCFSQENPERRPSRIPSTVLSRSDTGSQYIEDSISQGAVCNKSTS

Broadly, the IC50 is the midpoint of a concentration-inhibition curve. On to `C[C@H](OC(=O)Nc1c(-c2ccc(-c3ccc(C4(C(=O)O)CC4)cc3)cc2)nnn1C)c1cccc(C(F)(F)F)c1` [Example 5, 1-(4′-{1-Methyl-5-[(S)-1-(3-trifluoromethyl-phenyl)-ethoxycarbonylamino]-1H-[1,2,3]triazol-4-yl}-biphenyl-4-yl)-cyclopropanecarboxylic acid], for which the IC50 came to 6310 nM in assay [1] and 2660 nM in assay [2].
What is called inhibition is the change of the read-out against control, counted positive when it falls. Turning to `C[C@@H](OC(=O)Nc1c(-c2ccc(-c3cccc(C4(C(=O)O)CC4)c3)cc2)nnn1C)c1ccccc1` [Example 9, (R)-1-(4′-(1-Methyl-5-((1-phenylethoxy)carbonylamino)-1H-1,2,3-triazol-4-yl)biphenyl-3-yl)cyclopropanecarboxylic acid], the IC50 in assay [1] came to 18400 nM; in assay [2] it was 4450 nM. The inhibition at 30 µM in assay [1] amounted to 62%.
Consider `C[C@@H](OC(=O)Nc1c(-c2ccc(-c3ccc(C4(C(=O)NS(C)(=O)=O)CC4)cc3)cc2)nnn1C)c1ccccc1` [Example 12, {5-[4′-(1-Methanesulfonylaminocarbonyl-cyclopropyl)-biphenyl-4-yl]-3-methyl-3H-[1,2,3]triazol-4-yl}-carbamic acid (R)-1-phenyl-ethyl ester], for which the IC50 in assay [1] is 2310 nM; in assay [2] it was 18.8 nM.
Take `C[C@@H](OC(=O)Nc1c(-c2ccc(-c3ccc(C4(C(=O)O)CC4)cc3)cc2)nnn1C)c1ccccc1` [Example 2, 1-{4′-[1-Methyl-5-((R)-1-phenyl-ethoxycarbonylamino)-1H-[1,2,3]triazol-4-yl]-biphenyl-4-yl}-cyclopropanecarboxylic acid]: the IC50 in assay [1] amounted to 2290 nM; in assay [2], 18 nM.
`CC(OC(=O)Nc1c(-c2ccc(-c3ccc(C4(C(=O)O)CC4)cc3)cc2)nnn1C)c1cccc(C(F)(F)F)c1` (racemic) [Example 4, 1-(4′-{1-Methyl-5-[1-(3-trifluoromethyl-phenyl)-ethoxycarbonylamino]-1H-[1,2,3]triazol-4-yl}-biphenyl-4-yl)-cyclopropanecarboxylic acid]: the IC50 turned out to be 279 nM in assay [1] and 46 nM in assay [2].
Consider `C[C@@H](OC(=O)Nc1c(-c2ccc(-c3ccc(C4(C(=O)O)CC4)cc3)cc2F)nnn1C)c1ccccc1` [Example 11, 1-{3′-Fluoro-4′-[1-methyl-5-((R)-1-phenyl-ethoxycarbonylamino)-1H-[1,2,3]triazole-4-yl]-biphenyl-4-yl}-cyclopropanecarboxylic acid], for which, in assay [1], the IC50 is 27400 nM and the inhibition at 30 µM is 62%. Moreover, in assay [2], the IC50 was found to be 18 nM.
For the molecule `C[C@@H](OC(=O)Nc1c(-c2ccc(Br)cc2)nnn1C)c1ccccc1` [Example 1, [5-(4-Bromo-phenyl)-3-methyl-3H-[1,2,3]triazol-4-yl]-carbamic acid (R)-1-phenyl-ethyl ester], the IC50 in assay [1] is more than 30000 nM; in assay [2], 21900 nM. The inhibition at 30 µM in assay [2] (at 30 μM) worked out at 52.3%.
For the molecule `C[C@@H](OC(=O)Nc1nnn(C)c1-c1ccc(-c2ccc(C3(C(=O)O)CC3)cc2)cc1)c1ccccc1` [Example 8, 1-{4′-[3-Methyl-5-((R)-1-phenyl-ethoxycarbonylamino)-3H-[1,2,3]triazol-4-yl]-biphenyl-4-yl}-cyclopropanecarboxylic acid], the IC50 in assay [1] and in assay [2] was more than 30000 nM each time.
With `C[C@@H](OC(=O)Nc1c(-c2ccc(-c3ccc(C4(C(=O)O)CC4)cc3)cc2)nnn1C)c1cccc(C(F)(F)F)c1` [Example 6, 1-(4′-{1-Methyl-5-[(R)-1-(3-trifluoromethyl-phenyl)-ethoxycarbonylamino]-1H-[1,2,3]triazol-4-yl}-biphenyl-4-yl)-cyclopropanecarboxylic acid], the results for the IC50 in assay [1] and in assay [2] were 132 nM and 18 nM, respectively.
With `CC(C)[C@@H](C)OC(=O)Nc1c(-c2ccc(-c3ccc(C4(C(=O)O)CC4)cc3)cc2)nnn1C` [Example 7, 1-{4′-[5-((R)-1,2-Dimethyl-propoxycarbonylamino)-1-methyl-1H-[1,2,3]triazol-4-yl]biphenyl-4-yl}-cyclopropanecarboxylic acid], the IC50 in assay [1] was more than 30000 nM; in assay [2], 70 nM.
For the molecule `C[C@@H](OC(=O)Nc1c(-c2ccc(C3CCC(CC(=O)O)CC3)cc2)nnn1C)c1ccccc1` (stereo partly drawn) [Example 14, (4-{4-[1-Methyl-5-((R)-1-phenyl-ethoxycarbonylamino)-1H-[1,2,3]triazol-4-yl]-phenyl}-cyclohexyl)-acetic acid], in assay [1], the IC50 was 18600 nM and the inhibition at 30 µM is 68%. The IC50 in assay [2] came out at 58 nM.
As for `C[C@@H](OC(=O)Nc1c(-c2ccc(-c3ccc(C4(C(=O)NS(C)(=O)=O)CC4)cc3)cc2)nnn1C)c1cccc(C(F)(F)F)c1` [Example 13, {5-[4′-(1-Methanesulfonylaminocarbonyl-cyclopropyl)-biphenyl-4-yl]-3-methyl-3H-[1,2,3]triazol-4-yl}-carbamic acid (R)-1-(3-trifluoromethyl-phenyl)-ethyl ester], the IC50 in assay [1] amounted to 65.7 nM; in assay [2], 24.5 nM.
As for `C[C@@H](OC(=O)Nc1c(-c2ccc(-c3ccc(CC(=O)O)cc3)cc2)nnn1C)c1ccccc1` [Example 3, {4′-[1-Methyl-5-((R)-1-phenyl-ethoxycarbonylamino)-1H-[1,2,3]triazol-4-yl]-biphenyl-4-yl}-acetic acid], the figures for the IC50 in assay [1] and in assay [2] were 21900 nM and 48 nM, respectively. Besides, the inhibition at 30 µM in assay [1] was 58.2%.
In the case of `COC(=O)C1(c2ccc(-c3ccc(-c4nnn(C)c4NC(=O)O[C@H](C)c4ccccc4)c(F)c3)cc2)CC1` [Example 10, 1-{3′-Fluoro-4′-[1-methyl-5-((R)-1-phenyl-ethoxycarbonylamino)-1H-[1,2,3]triazole-4-yl]-biphenyl-4-yl}-cyclopropanecarboxylic acid methyl ester], the IC50 in assay [1] and in assay [2] was more than 30000 nM in each case.
